For test [1], the target named is Human ACC2 (Homo sapiens, UniProt O00763). Briefly: In vitro ACC2 inhibition assay (ADP-Glo), human ACC2. It counts as biochemical. The following applies: 5 nM ACC2, 20 μM ATP, 20 μM acetyl-CoA.
For test [2], the system named is C. albicans ATCC 90028. Briefly: Anti-Fungal Activity Assay (broth microtiter MIC), C. albicans. The following applies: Candida albicans, ATCC90028, 48 h, 3 replicates; MIC recorded at 48 h; read-out: MIC C. albicans ATCC 90028. It counts as cell-based, Candida albicans. An outline of the steps:
(§1)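 Plate from frozen stock onto Sabouraud dextrose agar, 35° C overnight; swab colonies into RPMI 1640+MOPS; set density via standard curves; run CLSI M27-A3 broth microdilution; score MIC visually versus growth control at 48 h, soraphen additionally at 24 h.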

For test [3], the system named is C. krusei ATCC 6258. Briefly: Anti-Fungal Activity Assay (broth microtiter MIC), C. krusei. It counts as cell-based, Candida krusei. As to conditions: Pichia kudriavzevii, ATCC6258, 48 h, 3 replicates; MIC recorded at 48 h; read-out: MIC C. krusei ATCC 6258. An outline of the steps:
as §1

The test system of test [4] is C. parapsilosis ATCC 22019. Briefly: Anti-Fungal Activity Assay (broth microtiter MIC), C. parapsilosis. It counts as cell-based, Candida parapsilosis. The following applies: Lodderomyces parapsilosis, ATCC22019, 48 h, 3 replicates; MIC recorded at 48 h; read-out: MIC C. parapsilosis ATCC 22019. The method, boiled down: as §1
For test [5], the target named is Fungal ACC2 (UniProt Q00955). As to conditions: read-out: Fungal ACC2 (IC50, in vitro ACC2 inhibition).

pIC50: −log10 of the molar value. Converted amounts (≈) assume the structure as drawn.

Fungal ACC2, sequence (Q00955 whole entry): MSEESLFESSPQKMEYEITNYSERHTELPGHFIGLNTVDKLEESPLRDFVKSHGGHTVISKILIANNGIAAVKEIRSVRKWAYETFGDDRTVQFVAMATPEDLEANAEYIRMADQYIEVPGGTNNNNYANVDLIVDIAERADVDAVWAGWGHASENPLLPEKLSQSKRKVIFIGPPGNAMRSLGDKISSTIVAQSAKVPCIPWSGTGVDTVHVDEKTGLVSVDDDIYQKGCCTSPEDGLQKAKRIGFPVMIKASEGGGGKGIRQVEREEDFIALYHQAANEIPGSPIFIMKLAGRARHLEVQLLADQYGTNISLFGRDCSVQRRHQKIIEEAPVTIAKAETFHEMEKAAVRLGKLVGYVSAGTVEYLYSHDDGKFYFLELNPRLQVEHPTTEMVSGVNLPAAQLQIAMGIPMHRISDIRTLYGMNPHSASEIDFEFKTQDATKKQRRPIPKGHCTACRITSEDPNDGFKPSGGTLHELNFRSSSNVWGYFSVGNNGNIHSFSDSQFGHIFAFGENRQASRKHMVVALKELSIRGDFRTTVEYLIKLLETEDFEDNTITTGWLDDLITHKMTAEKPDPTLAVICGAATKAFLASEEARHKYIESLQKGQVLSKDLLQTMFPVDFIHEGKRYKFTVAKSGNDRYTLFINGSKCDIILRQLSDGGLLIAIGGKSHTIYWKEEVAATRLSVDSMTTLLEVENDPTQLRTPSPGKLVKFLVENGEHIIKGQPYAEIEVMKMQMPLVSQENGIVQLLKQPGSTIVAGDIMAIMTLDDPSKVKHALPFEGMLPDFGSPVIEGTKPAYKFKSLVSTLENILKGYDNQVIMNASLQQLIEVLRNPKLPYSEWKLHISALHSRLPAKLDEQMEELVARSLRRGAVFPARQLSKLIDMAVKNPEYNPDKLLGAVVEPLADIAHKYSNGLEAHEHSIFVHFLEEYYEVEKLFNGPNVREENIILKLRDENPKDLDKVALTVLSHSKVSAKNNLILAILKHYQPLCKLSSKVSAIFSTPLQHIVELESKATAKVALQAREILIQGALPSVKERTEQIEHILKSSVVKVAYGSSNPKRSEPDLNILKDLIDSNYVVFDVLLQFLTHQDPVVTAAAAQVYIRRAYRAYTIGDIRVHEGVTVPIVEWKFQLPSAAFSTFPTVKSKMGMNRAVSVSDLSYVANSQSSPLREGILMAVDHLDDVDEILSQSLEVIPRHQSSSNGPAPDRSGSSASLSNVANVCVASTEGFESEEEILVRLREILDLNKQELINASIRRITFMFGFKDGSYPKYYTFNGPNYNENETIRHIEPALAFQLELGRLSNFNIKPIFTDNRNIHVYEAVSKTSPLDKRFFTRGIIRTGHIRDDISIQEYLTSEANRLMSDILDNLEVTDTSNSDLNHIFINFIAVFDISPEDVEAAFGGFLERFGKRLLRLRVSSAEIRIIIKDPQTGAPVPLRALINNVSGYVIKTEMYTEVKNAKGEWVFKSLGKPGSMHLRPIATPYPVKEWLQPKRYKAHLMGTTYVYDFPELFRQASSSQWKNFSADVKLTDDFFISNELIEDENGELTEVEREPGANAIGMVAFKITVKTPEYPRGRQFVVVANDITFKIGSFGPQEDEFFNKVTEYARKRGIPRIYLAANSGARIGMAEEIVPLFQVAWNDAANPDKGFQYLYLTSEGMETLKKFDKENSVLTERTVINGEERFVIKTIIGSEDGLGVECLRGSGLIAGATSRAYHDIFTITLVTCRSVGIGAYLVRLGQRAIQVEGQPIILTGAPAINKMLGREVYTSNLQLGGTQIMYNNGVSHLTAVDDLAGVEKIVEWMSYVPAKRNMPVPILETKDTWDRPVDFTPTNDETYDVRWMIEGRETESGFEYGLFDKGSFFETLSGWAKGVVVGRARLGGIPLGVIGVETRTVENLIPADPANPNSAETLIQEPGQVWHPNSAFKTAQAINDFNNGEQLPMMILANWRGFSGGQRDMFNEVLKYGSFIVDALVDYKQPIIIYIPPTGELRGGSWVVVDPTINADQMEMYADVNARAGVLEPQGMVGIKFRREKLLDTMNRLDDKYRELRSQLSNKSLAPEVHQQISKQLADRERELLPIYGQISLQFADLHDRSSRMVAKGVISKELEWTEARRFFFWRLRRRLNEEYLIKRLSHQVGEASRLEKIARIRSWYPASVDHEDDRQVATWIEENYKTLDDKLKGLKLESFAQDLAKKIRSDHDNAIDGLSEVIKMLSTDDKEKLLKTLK
Human ACC2, sequence (O00763 whole entry): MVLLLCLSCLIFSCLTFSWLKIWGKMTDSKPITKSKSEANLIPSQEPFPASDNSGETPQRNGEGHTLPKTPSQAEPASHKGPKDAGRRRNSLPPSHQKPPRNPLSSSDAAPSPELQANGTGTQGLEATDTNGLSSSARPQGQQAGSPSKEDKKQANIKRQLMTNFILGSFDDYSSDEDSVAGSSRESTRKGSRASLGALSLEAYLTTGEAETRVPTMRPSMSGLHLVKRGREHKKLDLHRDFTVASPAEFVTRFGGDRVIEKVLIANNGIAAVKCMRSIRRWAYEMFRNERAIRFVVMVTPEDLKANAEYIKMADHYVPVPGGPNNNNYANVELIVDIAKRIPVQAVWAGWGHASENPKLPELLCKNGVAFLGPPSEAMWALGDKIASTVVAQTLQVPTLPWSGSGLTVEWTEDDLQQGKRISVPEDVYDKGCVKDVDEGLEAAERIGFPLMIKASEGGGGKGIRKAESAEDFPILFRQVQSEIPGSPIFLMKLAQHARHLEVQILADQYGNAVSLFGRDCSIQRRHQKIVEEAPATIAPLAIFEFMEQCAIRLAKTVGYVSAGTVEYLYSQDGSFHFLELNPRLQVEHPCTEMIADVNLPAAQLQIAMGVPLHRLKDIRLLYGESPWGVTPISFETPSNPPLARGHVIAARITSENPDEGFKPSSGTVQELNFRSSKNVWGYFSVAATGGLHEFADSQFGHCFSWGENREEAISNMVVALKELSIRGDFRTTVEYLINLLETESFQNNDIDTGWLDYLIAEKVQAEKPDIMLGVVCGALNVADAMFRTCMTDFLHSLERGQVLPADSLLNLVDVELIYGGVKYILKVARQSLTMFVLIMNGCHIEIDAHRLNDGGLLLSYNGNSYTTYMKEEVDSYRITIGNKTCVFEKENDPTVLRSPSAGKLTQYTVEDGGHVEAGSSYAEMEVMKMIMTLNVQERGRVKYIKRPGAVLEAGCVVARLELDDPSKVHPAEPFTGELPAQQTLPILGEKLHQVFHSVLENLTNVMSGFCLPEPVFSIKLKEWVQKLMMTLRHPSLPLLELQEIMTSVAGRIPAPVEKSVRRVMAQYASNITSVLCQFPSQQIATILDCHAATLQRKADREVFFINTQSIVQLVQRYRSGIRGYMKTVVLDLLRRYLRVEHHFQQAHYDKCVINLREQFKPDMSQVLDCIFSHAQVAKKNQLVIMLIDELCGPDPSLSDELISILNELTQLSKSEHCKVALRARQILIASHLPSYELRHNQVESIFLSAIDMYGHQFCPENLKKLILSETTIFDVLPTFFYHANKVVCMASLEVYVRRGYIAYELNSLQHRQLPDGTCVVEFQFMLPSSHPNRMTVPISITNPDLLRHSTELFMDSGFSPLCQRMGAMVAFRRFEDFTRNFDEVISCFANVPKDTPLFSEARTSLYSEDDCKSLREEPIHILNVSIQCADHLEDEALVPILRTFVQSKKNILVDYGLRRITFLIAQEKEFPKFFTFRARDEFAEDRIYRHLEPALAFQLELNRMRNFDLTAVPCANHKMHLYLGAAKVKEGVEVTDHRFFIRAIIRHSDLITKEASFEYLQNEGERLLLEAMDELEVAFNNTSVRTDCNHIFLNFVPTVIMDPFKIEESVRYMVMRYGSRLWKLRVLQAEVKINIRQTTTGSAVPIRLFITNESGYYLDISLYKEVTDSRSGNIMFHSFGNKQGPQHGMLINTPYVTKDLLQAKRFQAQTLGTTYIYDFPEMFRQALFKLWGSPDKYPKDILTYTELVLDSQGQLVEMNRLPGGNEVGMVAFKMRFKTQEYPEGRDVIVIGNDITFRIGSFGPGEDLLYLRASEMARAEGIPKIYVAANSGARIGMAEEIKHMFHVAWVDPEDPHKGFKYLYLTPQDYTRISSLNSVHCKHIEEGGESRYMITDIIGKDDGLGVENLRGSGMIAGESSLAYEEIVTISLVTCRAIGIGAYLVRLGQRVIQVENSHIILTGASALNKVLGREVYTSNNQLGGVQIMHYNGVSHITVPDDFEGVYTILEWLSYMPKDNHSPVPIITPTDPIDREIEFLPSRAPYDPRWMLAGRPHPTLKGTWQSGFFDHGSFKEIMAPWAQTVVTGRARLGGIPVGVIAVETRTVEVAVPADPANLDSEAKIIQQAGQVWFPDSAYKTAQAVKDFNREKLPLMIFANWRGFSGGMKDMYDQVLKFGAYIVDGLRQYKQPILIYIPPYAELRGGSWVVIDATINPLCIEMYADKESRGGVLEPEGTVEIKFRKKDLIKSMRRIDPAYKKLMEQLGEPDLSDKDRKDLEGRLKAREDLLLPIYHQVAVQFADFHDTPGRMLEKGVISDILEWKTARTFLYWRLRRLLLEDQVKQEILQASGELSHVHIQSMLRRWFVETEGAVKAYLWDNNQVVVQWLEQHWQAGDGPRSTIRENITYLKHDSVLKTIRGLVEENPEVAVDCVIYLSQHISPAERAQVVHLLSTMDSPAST

On to `COc1ccc(F)cc1[C@H](Cn1c(=O)n(C2CCNC2=O)c(=O)c2c(C)c(-n3nccn3)sc21)OCCO` (stereo partly drawn) [Compound I-5, 1-((R)-2-(5-fluoro-2-methoxyphenyl)-2-(2-hydroxyethoxy)ethyl)-5-methyl-3-(2-oxopyrrolidin-3-yl)-6-(2H-1,2,3-triazol-2-yl)thieno[2,3-d]pyrimidine-2,4(1H,3H)-dione], for which the pIC50 is 8.00 to 8.70 in test [1] and 8.70 to 9.15 in test [5]. Besides, the MIC in test [2], in test [3] and in test [4] was 2.1 to 4 µg/mL (≈ 3.86 to 7.35 µM) throughout.

Regarding `COCCO[C@@H](Cn1c(=O)n(C2CCCNC2=O)c(=O)c2c(C)c(-n3nccn3)sc21)c1cc(F)ccc1OC` (stereo partly drawn) [Compound I-13, 1-((R)-2-(5-fluoro-2-methoxyphenyl)-2-(2-methoxy-ethoxy)ethyl)-5-methyl-3-(2-oxopiperidin-3-yl)-6-(2H-1,2,3-triazol-2-yl)thieno[2,3-d]pyrimidine-2,4(1H,3H)-dione], the pIC50 is 7.00 to 8.00 in test [1] and 8.70 to 9.15 in test [5]. Further, the MIC in test [2], in test [3] and in test [4] was 2.1 to 4 µg/mL (≈ 3.67 to 6.99 µM) in each case.

Regarding `CCN1CCCC(n2c(=O)c3c(C)c(-n4nccn4)sc3n(C[C@H](OCCOC)c3cc(F)ccc3OC)c2=O)C1=O` (stereo partly drawn) [Compound I-15, 3-(1-ethyl-2-oxopiperidin-3-yl)-1-((R)-2-(5-fluoro-2-methoxyphenyl)-2-(2-methoxyethoxy)ethyl)-5-1-methyl-6-(2H-1,2,3-triazol-2-yl)thieno[2,3-d]pyrimidine-2,4(1H,3H)-dione], the pIC50 in test [1] and in test [5] was 7.00 to 8.00 each time. In addition, the MIC in test [2], in test [3] and in test [4] was 2.1 to 4 µg/mL (≈ 3.5 to 6.66 µM) throughout.

For `COCCO[C@@H](Cn1c(=O)n(C2CCCN(C(C)C)C2=O)c(=O)c2c(C)c(-n3nccn3)sc21)c1cc(F)ccc1OC` (stereo partly drawn) [Compound I-16, 1-((R)-2-(5-fluoro-2-methoxyphenyl)-2-(2-methoxy-ethoxy)ethyl)-3-(1-isopropyl-2-oxopiperidin-3-yl)-5-methyl-6-(2H-1,2,3-triazol-2-yl)thieno[2,3-d]pyrimidine-2,4(1H,3H)-dione], the pIC50 in test [1] is 6.00 to 7.00; in test [5], 8.00 to 8.70. Besides, the minimal inhibitory concentration (MIC) in test [2], in test [3] and in test [4] was 2.1 to 4 µg/mL (≈ 3.42 to 6.51 µM) in each case.

With `COc1ccc(F)cc1[C@H](Cn1c(=O)n(C2CCCN(C)C2=O)c(=O)c2c(C)c(-n3nccn3)sc21)OCCO` (stereo partly drawn) [Compound I-18, 1-((R)-2-(5-fluoro-2-methoxyphenyl)-2-(2-hydroxy-ethoxy)ethyl)-5-methyl-3-(1-methyl-2-oxopiperidin-3-yl)-6-(2H-1,2,3-triazol-2-yl)thieno[2,3-d]pyrimidine-2,4(1H,3H)-dione], the results for the pIC50 in test [1] and in test [5] were 7.00 to 8.00 and 8.00 to 8.70, respectively. The MIC in test [2], in test [3] and in test [4] was 2.1 to 4 µg/mL (≈ 3.67 to 6.99 µM) each time.

On to `COc1ccc(F)cc1[C@H](Cn1c(=O)n(C2CCCN(C)C2=O)c(=O)c2c(C)c(-n3nccn3)sc21)OC1CCOCC1` (stereo partly drawn) [Compound I-22, 1-((R)-2-(5-fluoro-2-methoxyphenyl)-2-((tetrahydro-2H-pyran-4-yl)oxy)ethyl)-5-methyl-3-(1-methyl-2-oxopiperidin-3-yl)-6-(2H-1,2,3-triazol-2-yl)thieno[2,3-d]pyrimidine-2,4(1H,3H)-dione], for which the pIC50 was 7.00 to 8.00 in test [1] and 8.70 to 9.15 in test [5]. The MIC in test [2], in test [3] and in test [4] was 0.25 to 1 µg/mL (≈ 0.408 to 1.63 µM) each time.

In the case of `CCN1CCCC(n2c(=O)c3c(C)c(-n4nccn4)sc3n(C[C@H](OC3CCOCC3)c3cc(F)ccc3OC)c2=O)C1=O` (stereo partly drawn) [Compound I-23, 3-(1-ethyl-2-oxopiperidin-3-yl)-1-((R)-2-(5-fluoro-2-methoxyphenyl)-2-((tetrahydro-2H-pyran-4-yl)oxy)ethyl)-5-methyl-6-(2H-1,2,3-triazol-2-yl)thieno[2,3-d]pyrimidine-2,4(1H,3H)-dione], the negative-log IC50 (pIC50) in test [1] was 8.00 to 8.70; in test [5], 8.70 to 9.15. The MIC in test [2], in test [3] and in test [4] was 0.25 to 1 µg/mL (≈ 0.399 to 1.6 µM) in each case.

`COc1ccc(F)cc1[C@H](Cn1c(=O)n([C@H]2CCN(C)C2=O)c(=O)c2c(C)c(-n3nccn3)sc21)OC1CCOCC1` [Compound I-35, 1-((R)-2-(5-fluoro-2-methoxyphenyl)-2-((tetrahydro-2H-pyran-4-yl)oxy)ethyl)-5-methyl-3-((S)-1-methyl-2-oxopyrrolidin-3-yl)-6-(2H-1,2,3-triazol-2-yl)thieno[2,3-d]pyrimidine-2,4(1H,3H)-dione]: the pIC50 in test [1] was 7.00 to 8.00; in test [5] it was 8.70 to 9.15. The MIC in test [2], in test [3] and in test [4] was 2.1 to 4 µg/mL (≈ 3.51 to 6.68 µM) each time.

For `COc1ccc(F)cc1[C@H](Cn1c(=O)n([C@@H]2CCCN(C)C2=O)c(=O)c2c(C)c(-n3nccn3)sc21)OC1CCOCC1` [Compound I-40, 1-((R)-2-(5-fluoro-2-methoxyphenyl)-2-((tetrahydro-2H-pyran-4-yl)oxy)ethyl)-5-methyl-3-((R)-1-methyl-2-oxopiperidin-3-yl)-6-(2H-1,2,3-triazol-2-yl)thieno[2,3-d]pyrimidine-2,4(1H,3H)-dione], the results for the pIC50 in test [1] and in test [5] were 7.00 to 8.00 and 8.70 to 9.15, respectively. Besides, the MIC in test [2] fell in the range of 1.1 to 2 µg/mL (≈ 1.8 to 3.26 µM); in test [3] it was 1.1 to 2 µg/mL (≈ 1.8 to 3.26 µM); in test [4], 0.25 to 1 µg/mL (≈ 0.408 to 1.63 µM).

On to `COc1ccccc1[C@H](Cn1c(=O)n(C2CCNC2=O)c(=O)c2c(C)c(-c3ncco3)sc21)OCCO` (stereo partly drawn) [Compound I-53, 1-((R)-2-(2-hydroxyethoxy)-2-(2-methoxyphenyl)ethyl)-5-methyl-6-(oxazol-2-yl)-3-(2-oxopyrrolidin-3-yl)thieno[2,3-d]pyrimidine-2,4(1H,3H)-dione], for which the pIC50 in test [1] and in test [5] was 7.00 to 8.00 each time. For the same molecule, the minimal inhibitory concentration (MIC) in test [2], in test [3] and in test [4] was 2.1 to 4 µg/mL (≈ 3.99 to 7.6 µM) throughout.

For the molecule `COc1ccccc1[C@H](Cn1c(=O)n(C2CCN(C)C2=O)c(=O)c2c(C)c(-c3ncco3)sc21)OCCO` (stereo partly drawn) [Compound I-54, 1-((R)-2-(2-hydroxyethoxy)-2-(2-methoxyphenyl)ethyl)-5-methyl-3-(1-methyl-2-oxopyrrolidin-3-yl)-6-(oxazol-2-yl)thieno[2,3-d]pyrimidine-2,4(1H,3H)-dione], the pIC50 in test [1] is 7.00 to 8.00; in test [5], 8.00 to 8.70. For the same molecule, the MIC in test [2], in test [3] and in test [4] was 2.1 to 4 µg/mL (≈ 3.88 to 7.4 µM) each time.

In the case of `COc1ccc(F)cc1[C@H](Cn1c(=O)n(C2CCN(C)C2=O)c(=O)c2c(C)c(-c3ncco3)sc21)OCCO` (stereo partly drawn) [Compound I-55, 1-((R)-2-(5-fluoro-2-methoxyphenyl)-2-(2-hydroxy-ethoxy)ethyl)-5-methyl-3-(-methyl-2-oxopyrrolidin-3-yl)-6-(oxazol-2-yl)thieno[2,3-d]pyrimidine-2,4(1H,3H)-dione], the negative logarithm of the IC50 (pIC50) was 7.00 to 8.00 in test [1] and 8.70 to 9.15 in test [5]. The MIC in test [2], in test [3] and in test [4] was 2.1 to 4 µg/mL (≈ 3.76 to 7.16 µM) each time.

With `COc1ccccc1[C@H](Cn1c(=O)n([C@@H]2CCCNC2=O)c(=O)c2c(C)c(-c3ncco3)sc21)OCCO` [Compound I-61, 1-((R)-2-(2-hydroxyethoxy)-2-(2-methoxyphenyl)ethyl)-5-methyl-6-(oxazol-2-yl)-3-((R)-2-oxopiperidin-3-yl)thieno[2,3-d]pyrimidine-2,4(1H,3H)-dione], the results for the pIC50 in test [1] and in test [5] were 7.00 to 8.00 and 8.70 to 9.15, respectively. The MIC in test [2], in test [3] and in test [4] was 2.1 to 4 µg/mL (≈ 3.88 to 7.4 µM) in each case.

Take `COc1ccccc1[C@H](Cn1c(=O)n([C@H]2CCCN(C)C2=O)c(=O)c2c(C)c(-c3ncco3)sc21)OCCO` [Compound I-66, 1-((R)-2-(2-hydroxyethoxy)-2-(2-methoxyphenyl)ethyl)-5-methyl-3-((S)-1-methyl-2-oxopiperidin-3-yl)-6-(oxazol-2-yl)thieno[2,3-d]pyrimidine-2,4(1H,3H)-dione]: the results for the pIC50 in test [1] and in test [5] were 7.00 to 8.00 and 8.00 to 8.70, respectively. Further, the MIC in test [2], in test [3] and in test [4] was 2.1 to 4 µg/mL (≈ 3.79 to 7.21 µM) each time.

As to `COc1ccccc1[C@H](Cn1c(=O)n([C@@H]2CCCN(C)C2=O)c(=O)c2c(C)c(-c3ncco3)sc21)OCCO` [Compound I-67, 1-((R)-2-(2-hydroxyethoxy)-2-(2-methoxyphenyl)ethyl)-5-methyl-3-((R)-1-methyl-2-oxopiperidin-3-yl)-6-(oxazol-2-yl)thieno[2,3-d]pyrimidine-2,4(1H,3H)-dione], the pIC50 in test [1] is 7.00 to 8.00; in test [5], 8.00 to 8.70. Further, the MIC in test [2], in test [3] and in test [4] was 2.1 to 4 µg/mL (≈ 3.79 to 7.21 µM) each time.

On to `COc1ccc(F)cc1[C@H](Cn1c(=O)n([C@H]2CCNC2=O)c(=O)c2c(C)c(-c3ncco3)sc21)OCCO` [Compound I-68, 1-((R)-2-(5-fluoro-2-methoxyphenyl)-2-(2-hydroxy-ethoxy)ethyl)-5-methyl-6-(oxazol-2-yl)-3-((S)-2-oxopyrrolidin-3-yl)thieno[2,3-d]pyrimidine-2,4(1H,3H)-dione], for which the results for the pIC50 in test [1] and in test [5] were 7.00 to 8.00 and 8.00 to 8.70, respectively. The MIC in test [2], in test [3] and in test [4] was 2.1 to 4 µg/mL (≈ 3.86 to 7.35 µM) throughout.

By pIC50 is commonly meant the negative decadic logarithm of the IC50, by convention in mol/L. As a reminder, the MIC is the least concentration at which growth counts as inhibited.

The record behind these values is patent US20190330224A1, “ACC INHIBITORS AND USES THEREOF” (Gilead Apollo, LLC, priority 2015, published 2019).
